Source: patent publication US9271971B2, “Pyrido[3,4-B]indoles and methods of use” (Medivation Technologies, Inc., priority 2009, dated 2016)

Tests used:
[1] = target: T1, rat adrenergic α1A receptor (Rattus norvegicus, UniProt P43140); test: Adrenergic α1A radioligand binding assay; settings: [3H]Prozosin specific binding, read-out: Percent Inhibition of ligand binding, Adrenergic (0.1 μM ligand conc.) α1A
T1 construct: rat adrenergic α1A receptor obtained from Wistar Rat submaxillary glands; from tissue; host or cells: Wistar Rat submaxillary glands
T1 sequence (P43140 1-466): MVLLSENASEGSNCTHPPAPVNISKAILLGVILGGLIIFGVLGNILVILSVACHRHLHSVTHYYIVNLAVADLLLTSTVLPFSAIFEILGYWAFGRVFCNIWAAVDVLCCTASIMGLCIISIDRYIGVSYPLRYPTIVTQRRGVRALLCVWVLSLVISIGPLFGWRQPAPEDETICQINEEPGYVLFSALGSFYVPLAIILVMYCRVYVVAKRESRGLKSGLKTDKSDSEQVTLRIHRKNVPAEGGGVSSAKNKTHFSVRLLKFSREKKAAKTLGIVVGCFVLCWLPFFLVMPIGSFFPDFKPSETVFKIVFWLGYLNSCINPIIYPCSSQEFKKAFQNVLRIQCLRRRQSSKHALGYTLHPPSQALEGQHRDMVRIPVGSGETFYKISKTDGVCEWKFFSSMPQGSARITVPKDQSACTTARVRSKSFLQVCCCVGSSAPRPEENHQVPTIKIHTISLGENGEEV
Protocol: (§1) To evaluate in radioligand binding assays the activity of compounds of the invention, rat adrenergic α1A receptor obtained from Wistar Rat submaxillary glands (Michel, A. D. et al., Br. J. Pharmacol. (1989), 98:883] in a modified Tris-HCl buffer (50 mM Tris-HCl buffer, pH 7.4, 0.5 mM EDTA) was used. Compounds of the invention were incubated with 0.25 nM [^3H]Prozosin for 60 min. at 25° C. Non-specific binding was estimated in the presence of 10 μM phentolamine. Receptor proteins were filtered and washed, the filters were then counted to determine [^3H]Prozosin specifically bound. Compounds of the invention were screened at 1 μM or lower, using 1% DMSO as vehicle. Compounds of the invention were tested in this biochemical assay. Biochemical assay results for representative compounds were presented as the percent inhibition of specific binding in Table 3.

[2] = target: T2, rat adrenergic α1B receptor (Rattus norvegicus, UniProt P15823); test: Adrenergic α1B radioligand binding assay; settings: [3H]Prozosin specific binding, read-out: Percent Inhibition of ligand binding, Adrenergic (0.1 μM ligand conc.) α1B
T2 construct: rat adrenergic α1B receptor obtained from Wistar Rat liver; from tissue; host or cells: Wistar Rat liver
T2 sequence (P15823 1-515): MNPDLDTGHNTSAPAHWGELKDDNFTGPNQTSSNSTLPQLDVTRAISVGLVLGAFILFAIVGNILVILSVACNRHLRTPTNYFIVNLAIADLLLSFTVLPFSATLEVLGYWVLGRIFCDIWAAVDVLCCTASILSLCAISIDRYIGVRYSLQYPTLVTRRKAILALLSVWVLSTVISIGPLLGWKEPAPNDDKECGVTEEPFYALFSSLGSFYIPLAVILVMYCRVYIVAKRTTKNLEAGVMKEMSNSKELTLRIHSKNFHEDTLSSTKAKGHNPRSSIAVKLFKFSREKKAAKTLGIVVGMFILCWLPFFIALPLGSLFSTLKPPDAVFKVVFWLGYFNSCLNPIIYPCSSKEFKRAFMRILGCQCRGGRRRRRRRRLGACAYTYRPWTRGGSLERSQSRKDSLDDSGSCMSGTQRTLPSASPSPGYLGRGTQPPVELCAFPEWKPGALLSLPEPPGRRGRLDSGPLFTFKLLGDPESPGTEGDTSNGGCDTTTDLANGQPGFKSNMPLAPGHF
Protocol: as §1, with “rat adrenergic α1B receptor obtained” for “rat adrenergic α1A receptor obtained”, “Wistar Rat liver [Garcia-S′ainz, J. A. et al., Biochem. Biophys. Res. Commun. (1992), 186:760; Michel, A. D.” for “Wistar Rat submaxillary glands (Michel, A. D.”, “bound. Compounds were screened” for “bound. Compounds of the invention were screened”

SMILES	inhibition at 0.1 µM [1]	inhibition at 0.1 µM [2]
C/C(=C\n1c2c(c3cc(C)ccc31)C1CCN(C2)C1)c1ccc(Cl)cc1 (stereo not drawn) [Compound 32]	36%	67%
C/C(=C\n1c2c(c3cc(C)ccc31)C1CCN(C2)C1)c1ccncc1 (stereo not drawn) [Compound 44]	-7%	4%
C/C(=C\n1c2c(c3cc(C)ccc31)C1CCN(C2)C1)c1ccc(Cl)cc1Cl (stereo not drawn) [Compound 33]	3%	28%
COc1ccc(/C(C)=C/n2c3c(c4cc(C)ccc42)C2CCN(C3)C2)cc1 (stereo not drawn) [Compound 45]	24%	20%
C/C(=C\n1c2c(c3cc(C)ccc31)C1CCN(C2)C1)c1ccccc1F (stereo not drawn) [Compound 38]	14%	29%
Cc1ccc2c(c1)c1c(n2C(=O)Cc2ccc(Cl)cc2)CN2CCC1C2 (stereo not drawn) [Compound 36]	-18%	4%
